What was measured:
[1] = Fluorescence quantum yield and lifetime in benzonitrile (PhCN); type: physicochemical
Description: (B) Fluorescence decay curve of 4 observed at 787 nm. Excitation wavelength: 651 nm.
Instrumentation: Measurement of fluorescence quantum yields were carried out on a Hamamatsu C9920-0X(PMA-12) U6039-05 fluorescence spectrofluorometer. Femtosecond laser flash photolysis was conducted using a Clark-MXR 2010 laser system and an optical detection system provided by Ultrafast Systems (Helios). The source for the pump and probe pulses were derived from the fundamental output of Clark laser system (775 nm, 1 mJ pulse-1 and fwhm=150 fs) at a repetition rate of 1 kHz. A second harmonic generator introduced in the path of the laser beam provided […] laser pulses for excitation. A 95% of the fundamental output of the laser was used to generate the second harmonic, while 5% of the deflected output was used for white light generation. Prior to generating the probe continuum, the laser pulse was fed to a delay line that provided an experimental time window of 1.6 ns with a maximum step resolution of 7 fs. The pump beam was attenuated at 5 μJ pulse-1 with a spot size of 2 mm diameter at the sample cell where it was merged with the white probe pulse in a close angle (<10°). […] The photodynamics were monitored by continuous exposure to a xenon lamp for visible region and halogen lamp for near-IR region as a probe light and a photomultiplier tube (Hamamatsu 2949) as a detector.

[2] = Singlet oxygen phosphorescence at 1270 nm, methanol, pulsed laser 532 nm; type: physicochemical; conditions: near 5 μM, equi-absorbant at 532 nm, excited at 532 nm
Description: The photosensitizers, e. g., HPPH (control), 2 and 4 were individually dissolved in methanol (concentration: 5 μM) in polystyrene cuvettes and excited at 532 nm using a pulsed laser. Phosphorescence of singlet oxygen was detected at 1270 nm.
Before evaluating the imaging and photosensitizing potential of the chlorin 4 with extended ring system, its singlet oxygen producing ability was compared with the related chlorin 2. In brief, both compounds were individually dissolved in methanol in equi-absorbant (at 532 nm) concentrations near 5 μM and excited at 532 nm using a pulsed laser. The phosphorescence of singlet oxygen was detected at 1270 nm. From the results summarized in FIG. 4, it can be seen that compared to chlorin 2 with a five-member isocyclic ring, the related analog 4 with an extended ring system had remarkably lower singlet oxygen producing ability. Singlet oxygen quantum yields were φ=0.29 and φ=0.02 respectively, compared to HPPH φ=0.45.

[3] = Singlet oxygen NIR emission in O2-saturated C6D6 versus C60 standard; type: physicochemical; conditions: O2-saturated C6D6, excitation 532 nm, emission at 1270 nm compared with C60
Source text: Excitation wavelength: 532 nm.
After monitoring absorption characteristics in several organic and aqueous solvents, it was hypothesized that the aggregation state of 4 could have contributed in decreasing the fluorescence and singlet oxygen quantum yields. The quantum yield of singlet oxygen from 4 was ΦO2=0.31 determined by the comparison of the emission intensity at 1270 nm as compared with C60 used as a standard (ΦO2=0.96) (FIG. 5).

Colon26 tumors [4] = test: In vivo whole body tumor fluorescence imaging (IVIS Spectrum); set-up: species or system BALB/c mice; conditions: non-radioactive analogs, i.v., post-injection
Description: Before evaluating in vivo PDT efficacy of PS 4 by exposing the tumors with light, the time point for optimal tumor uptake of PS was determined by whole body fluorescence imaging of tumored mice at various time points after injecting the PS.
The multi-spectral imaging system, IVIS Spectrum (Perkin-Elmer) along with Living Image (image acquisition and analysis software) was used. IVIS Spectrum has the capability to use either trans-illumination (from the bottom) or epi-illumination (from the top) to illuminate in vivo fluorescent sources. […] Regions of interest (ROI) were defined for areas of compound accumulation (tumor, liver, skin) and total and average signal within the region were recorded. Fluorescent intensity is expressed as the total radiant efficiency ([p/s]/[μW/cm^2]. Results are expressed as mean total radiant efficiency of three mice±SD.

Colon26 tumors [5] = test: In vivo PDT efficacy; set-up: species or system BALB/c mice
Description: Tumors were exposed to light (135 J/cm^2, 75 mW/cm^2) at 24 h (hour) postinjection (optimal time for tumor uptake for both the PSs).
For determining the in vivo imaging and therapeutic potential of 2, BALB/c mice (5-10 mice/group) bearing Colon26 tumors were used. In brief, 1×10^6 Colon26 cells were injected in mice subcutaneously. The tumors were left to grow for 1 week until they achieve the desired size (3-5 mm) for treatment. The photosensitizer was injected intravenously following the animal protocol approved by RPCI IACUC committee. Irradiance occurred 24 hours after i. v. injection; light dose was 135 J/cm^2 at a dose rate of 75 mW/cm^2 using the near-IR wavelengths of interest: 665 nm or 789 nm.
Two axes of the tumor (L, longest axis; W, shortest axis) were measured in millimeters with the aid of a Vernier caliper. Tumor weight (mg) was estimated as a formula: tumor weight=1/2 (L×W2). Tumor measurements were taken daily for the first 10 days and at least three tine a week for the first 4 weeks of post therapy and twice a week thereafter. Endpoints were 400 mm^3 tumor volume or 60 days.

fluorescence lifetime ([1]; PhCN, decay observed at 787 nm, excitation 651 nm): 0.81 ns
Fluorescence quantum yield Φ ([1]; benzonitrile (PhCN), excited at 532 nm): 0.013
Singlet oxygen quantum yield φ [2]: 0.02
quantum yield of singlet oxygen ΦO2 [3]: 0.31
time of optimal uptake in tumor (fluorescence imaging) (Colon26 tumors [4]): 24 h
Substance: methyl 3-[1′-(m-iodobenzyloxy)ethyl]-3-devinyl-13^3-keto-13^2-methoxycyclohexene [Compound 4]
PDT efficacy compared with 2 (in words) (Colon26 tumors [5]; BALB/c mice bearing Colon26 tumors): far lower than that of 2
tumor cure after PDT (Colon26 tumors [5]; dose 1 μmol/kg, light 135 J/cm^2, 75 mW/cm^2 at 24 h postinjection, 5 mice/group): no tumor cure
long-term PDT efficacy at higher drug doses (in words) (Colon26 tumors [5]; higher drug doses than 1 μmol/kg, light 135 J/cm^2, 75 mW/cm^2 at 24 h): no significant long-term PDT efficacy

Source: patent US20220194952A1, “TETRAPYRROLIC CONJUGATES AND USES THEREOF FOR IMAGING” (Health Research, Inc., priority 2019, published 2022)
